Tests used:
[1] = tested on: umbilical vessel explant / cultured cells; experiment: Umbilical vessel ring assays, photomicrographs of cultured cells (FIGS. 1-3); type: cell-based, human
Method: FIGS. 1(A-D). Photomicrographs of cultured cells in umbilical vessel ring assays as described in Section 6.2. A. Positive control. The explant was cultured in media+EGCF 200 μg/ml. […] B. Negative control. The explant was cultured in placental conditioned media+supplement. In the absence of EGCF, fewer cells migrated from the explant than in the positive control (A). C. Treatment Group 3. The explant was cultured in placental conditioned media+EGCF 200 μg/ml+Thalomid™ 100 μg/ml. […] D. Treatment Group 2. The explant was cultured in placental conditioned media+EGCF 200 μg/ml+Thalomid™ 10 μg/ml.
FIGS. 2(A-C). Photomicrographs of cultured cells in umbilical vessel ring assays as described in Section 6.2. A. Control. Cells were cultured in placental conditioned media+ECGF 200 μg/ml+DMSO 1 μg/ml. B. Cells were cultured in placental conditioned media+ECGF 200 μg/ml+DMSO 1 μg/ml+Thalomid™ 1 μg/ml. […]. Cells were cultured in placental conditioned media+ECGF 200 μg/ml+DMSO 1 μg/ml+Thalomid™ 10 μg/ml.
FIGS. 3(A-B). Photomicrographs of cultured cells in umbilical vessel ring assays as described in Section 6. A. Control. Cells were cultured in placental conditioned media+DMSO. […] B. Cells were cultured in placental conditioned media+DMSO+Thalomid™.
(§1) Embryonic-like stem cells were isolated from placenta as described above in Section 5.4. The embryonic-like stem cells were cultured using the culture conditions described above.

rat aortic rings = experiment: Rat aortic angiogenesis assay; type: cell-based, Sprague Dawley rats
Method: Twelve well tissue culture grade plates were covered with 250 μl of Matrigel and allowed to gel for 30-45 min at 370 C, 5% Co2. Thoracic aortas were excised from eight to ten week old male Sprague Dawley rats and the fibroadipose tissue was removed. The aortas were sectioned into 1 mm long sections, rinsed eight times with EGM-2 (Clonetics Corp), placed on the Matrigel coated wells, covered with additional 250 μl Matrigel, and allowed to gel for 30-45 min at 370 C. The rings were cultured for 24 hours in 2 ml of EGM-2. After 24 hours, recombinant murine endostatin was reconstituted in EBM and added as a single treatment on day 1. Thalidomide was added at different concentrations (1 μg/ml, 5 μg/ml, 10 μg/ml, 50 μg/ml and 100 μg/ml) in the presence or absence of rabbit microsomes as noted in the Table 5. Aortic rings were photographed on days.

[2] = tested on: embryonic-like stem cells derived from placenta; experiment: Marker expression of cultured embryonic-like stem cells (staining score, Table 2); type: cell-based, human; design: key to SMC-specific Myosin HC / GFAP / CD34+ / CD45+: −: no staining; +/−: <20% staining; +: 20-50% staining; ++: 50-75% staining; +++: >75% staining; conditions: for CD34+ / CD45+ / GFAP / Nestin / SMC-specific Myosin HC: placental conditioned media, fourteen days of culture
Method: The following experiments evaluated the effects of Thalomid™, Actimid™ and Revimid™ on the morphological differentiation of embryonic-like stem cells derived from placenta. The morphological differentiation of cultured embryonic-like stem cells was evaluated after fourteen days of culture in the presence of placental conditioned medium and with DMSO (control), EGCF, Thalomid™, Actimid™ or Revimid™.
as §1
The cells were scored for the expression of CD34 (a marker of early hematopoietic progenitor cells; also an endothelial cell marker), CD45 (a marker of all hematopoietic cells except erythrocytes), CD105 (a marker of proliferating endothelial cells), smooth muscle cell (SMC)-specific myosin heavy chain, nestin ([…]), and glial fibrillary acidic protein (GFAP). Ratios of CD34 cells/TNC (Total Number of Cells), CD45 cells/TNC and CD105 cells/TNC were also determined.
In Table 2, the scoring was as follows: • −: no staining; +/−: <20% staining+: 20-50% staining; ++: 50-75% staining; +++: >75% staining.

[3] = tested on: human umbilical cord vessel rings; experiment: Human angiogenesis assay (umbilical artery vessel rings in Matrigel); type: cell-based; conditions: for Microvessel Growth (% Inhibition): vs 0.1% DMSO, three weeks, average of two rings
Source text: Fresh human umbilical cords were collected by trained medical personnel under fill donor informed consent from local hospitals. The cords were transported and treated within three hours. Umbilical cords and vessel lumens were rinsed with chilled basal nutrient medium. The artery was removed from the cord using mechanical means, forceps and small surgical scissors in an aseptic field. The vessel was cleaned of connective tissue and vessel rings were cut cross-wise in a length of 1 mm. The rings were placed into EGM-2 medium (Clonetics Corp.) in a 50 ml conical bottom tube and stored at 4° C. Six-well tissue culture plates were covered with […] of Matrigel and allowed to gel for 30-45 min at 37° C., under 5% CO2. The vessel rings were rinsed in EGM-2 medium and placed on the Matrigel-coated wells, covered with additional 250 μl Matrigel, and allowed to gel for 30-45 min at 37° C. (see FIG. 6). The vessels were cultured for 24 hours in 4 ml of EGM-2 to allow the tissue to adapt to its new environment. After 24 hours incubation, the rings were treated either with 0.1% DMSO as control, or different concentrations of compounds (thalidomide or CC4047). Culture medium was changed twice per week for total of three weeks.
The effects of compounds on cultured vessel rings were compared with the effect of DMSO on vessel rings. The results were analyzed using Image-Pro® Plus software (MediaCybernetics, Inc. Carlsbad, Calif.).
These experiments were done in duplicates and the results are the average of two rings in same experiment. A different concentration of Fumagillin is used as positive control in this experiment.

Structure (SMILES): O=C1CCC(N2C(=O)c3ccccc3C2=O)C(=O)N1 (stereo not drawn) [Thalomid, thalidomide, reference compound]
- cell phenotype (branching / non-branching) ([1]; placental conditioned media + DMSO (FIG. 3)): More cells exhibit a branching (e.g., neuronal) phenotype than in the control
- number of cells seen ([1]; placental conditioned media + ECGF 200 μg/ml + DMSO 1 μg/ml + 1 μg/ml (FIG. 2)): Fewer cells are seen than in the control
- number of cells seen ([1]; placental conditioned media + ECGF 200 μg/ml + DMSO 1 μg/ml + 10 μg/ml (FIG. 2)): Fewer cells are seen than in the control (A) or in (B)
- cell migration from the explant and outgrowth ([1]; placental conditioned media + EGCF 200 μg/ml + 10 μg/ml (FIG. 1D)): cells migrated a shorter distance from the explant and they exhibited less dense outgrowth than in the positive control
- cell migration from the explant ([1]; placental conditioned media + EGCF 200 μg/ml + 100 μg/ml (FIG. 1C)): cells migrated a shorter distance from the explant than in the positive control
- mean microvessel growth (% of control) (rat aortic rings; 10 μg/ml, + Rabbit microsomes): 16.6 % of control
- mean microvessel growth (% of control) (rat aortic rings; 10 μg/ml, without microsomes): 60 % of control
- mean microvessel growth (% of control) (rat aortic rings; 50 μg/ml, + Rabbit microsomes): 17.6 % of control
- mean microvessel growth (% of control) (rat aortic rings; 50 μg/ml, without microsomes): 82 % of control
- need of rabbit microsomes for inhibition of vessel formation (rat aortic rings; summary of Table 5): requires the addition of rabbit microsome in order to show efficient inhibition of vessel formation
- CD34+ ([2]; 10 μg/mL): +/− (<20% staining)
- CD45+ ([2]; 10 μg/mL): + (20-50% staining)
- GFAP ([2]; 10 μg/mL): −
- Nestin ([2]; 10 μg/mL): + (20-50% staining)
- SMC-specific Myosin HC ([2]; 10 μg/mL): −
- CD34+ ([2]; 100 μg/mL): −
- CD45+ ([2]; 100 μg/mL): + (20-50% staining)
- GFAP ([2]; 100 μg/mL): + (20-50% staining)
- Nestin ([2]; 100 μg/mL): + (20-50% staining)
- SMC-specific Myosin HC ([2]; 100 μg/mL): −
- numbers of cells expressing CD34, CD45 and smooth muscle cell (SMC)-specific myosin heavy chain ([2]; summary of Table 2): decreased
- numbers of cells expressing nestin and glial fibrillary acidic protein (GFAP) ([2]; summary of Table 2): increased
- Microvessel Growth (% Inhibition) ([3]; 0..1 μM): 40 % Inhibition
- Microvessel Growth (% Inhibition) ([3]; 1 μM): 81.4 % Inhibition
- Microvessel Growth (% Inhibition) ([3]; 10 μM): 100 % Inhibition
- formation of microvessel outgrowth ([3]; compared with DMSO treated samples): inhibited the formation of microvessel outgrowth in a dose dependent manner
- need of microsomes for activity ([3]; human ring assay, compared with rat ring results): no need for either human or rabbit microsome

From patent US20050148034A1, “Methods for identification of modulators of angiogenesis, compounds discovered thereby, and methods of treatment using the compounds” (priority 2002, published 2005)
